According to patent US11723886B2, “Targeting ocular diseases with novel APE1/Ref-1 inhibitors” (Indiana University Research and Technology Corporation, priority 2018, dated 2023):

Tests used:
[1] = tested on: Rf/6a macaque choroidal endothelial cells; test: In vitro cell proliferation assay (alamarBlue), Rf/6a; format: cell-based; settings: Macaca mulatta, Rf/6a choroidal endothelial cells, read-out: GI50 (median growth inhibition), Rf/6a
Method: Cells. Primary human retinal microvascular endothelial cells (HRECs) were obtained from Cell Systems, Inc. (Kirkland, Wash.), while the Rf/6a macacque choroidal endothelial cell line was obtained from ATCC (Manassas, Va.). Cells were maintained as described (Basavarajappa et al., EMBO Mol Med 9:786-801 (2017)), re-ordered at least annually, and regularly assessed for mycoplasma contamination.
In vitro cell proliferation assay. Endothelial cell proliferation was measured as described previously (Basavarajappa et al., PLoS One 9:e95694 (2014); Basavarajappa et al., EMBO Mol Med 9:786-801 (2017)). Briefly, 2.5×10^3 cells were seeded in 100 μL of growth medium and plated in each well of 96-well clear-bottom black plates and incubated for 24 hours. APX2009, APX2014, or DMSO vehicle (DMSO final concentration=1%) was added, and the plates were incubated for 24-48 hours in 100 μL complete medium at 37° C. and 5% CO2. AlamarBlue reagent (11.1 μL) was added to each well of the plate and 4 hours later fluorescence readings were taken at excitation and emission wavelengths of 560 nm and 590 nm, respectively, using a Synergy H1 plate reader (BioTek, Winooski, Vt.). GI50 was calculated using GraphPad Prism v. 7.0.

Rf/6a cells = test: Matrigel tube formation assay, Rf/6a; format: cell-based, macaque; settings: mid nanomolar concentrations, vs control
Method: (§1) In vitro Matrigel tube formation assay. The ability of HRECs and Rf/6a cells to form tubes in vitro was monitored as described before (Basavarajappa et al., PLoS One 9:e95694 (2014); Basavarajappa et al., EMBO Mol Med 9:786-801 (2017)). Briefly, cells were treated with the indicated concentrations of APX2009 or APX2014 compounds or DMSO for 48 hours and then 1.5×10^4 cells in 100 μL of growth medium containing DMSO or APX compounds were added to each well of a 96-well plate that was pre-coated with 50 μL of Matrigel basement membrane (DMSO final concentration=1%). Digital photographs of each well at different time points were taken to measure the in vitro tube formation using the Angiogenesis Analyzer plugin in ImageJ software (v.1.48; http://image.bio.methods.free.fr/ImageJ/?Angiogenesis-Analyzer-for-ImageJ.html).

[2] = tested on: APE1 repair activity in neurons; settings: cited from earlier work
[3] = tested on: murine choroidal explants; test: Ex vivo choroidal sprouting assay; format: cell-based, mouse; settings: for reduction of choroidal sprouting compared to control: 48 hours
Excerpt: Animals. All animal experiments were approved by the Indiana University School of Medicine Institutional Animal Care and Use Committee and followed the guidelines of the Association for Research in Vision and Ophthalmology Statement for the Use of Animals in Ophthalmic and Visual Research. Wild-type female C57BL/6 mice, 6-8 weeks of age, were purchased from Envigo (Indianapolis, Ind.; for choroidal sprouting experiments) or Jackson Laboratory (Bar Harbor, Me.; for L-CNV) and housed under standard conditions (Wenzel et al., Mol Vis 21:515-522 (2015)). Mice were anesthetized for all procedures by intraperitoneal injections of 90 mg/kg ketamine hydrochloride and 5 mg/kg xylazine, with intraperitoneal atipamezole reversal (1 mg/kg). Treatments were randomly assigned by cage.
Choroidal sprouting assay. Ex vivo Choroidal sprouting was assessed as described previously (Sulaiman et al., Sci Rep 6:25509 (2016); Basavarajappa et al., EMBO Mol Med 9:786-801 (2017)). Briefly, choroid-sclera was dissected from 7 to 8 week old mouse eyes and pieces were embedded in Matrigel (growth factor reduced) and grown in EGM-2 medium containing antibiotics for 72 hours to allow sprouting to initiate. The indicated concentrations of APX2009 and APX2014 compounds (in DMSO, final DMSO concentration 0.5 and 0.2%, respectively) were added and growth allowed to proceed for 48 hours Images were taken and growth was quantified by measuring the distance from the edge of the choroidal piece to the growth front in four directions per sample using ImageJ software.

HRECs [4] = test: Matrigel tube formation assay, HRECs; format: cell-based, human; settings: mid nanomolar concentrations, vs control
Method: as §1

HIF-regulated genes = test: RNA-Seq of HIF-regulated genes in HRECs; format: cell-based, human; settings: 0.1 and 1 μM, 6 and 24 hours
Method: Human retinal endothelial cells (HRECs) (Cell Systems, Inc. Kirkland, Wash.) were plated in 6-well plates and treated with 0.1 μM APX2009, 1 μM APX2009 or DMSO for 6 hours and 24 hours. Cells were washed once after treatment with PBS, collected and frozen. This process was repeated to collect treated cells in 4 different passages. RNA was extracted in 300 μL Trizol (Life Technologies, Carlsbad, Calif.) and flash frozen at −80° C. The SMARTer system (Clontech, Mountain View, Calif.) was used to generate cDNA from cells. The dscDNA quantity and quality was assessed using an Agilent Bioanalyzer (Agilent Technologies, Santa Clara, Calif., USA) with the High Sensitivity DNA Chip. […] The IUSM Genomics Facility prepared libraries using a Nextera kit (Illumina, San Diego, Calif.). DNAs were sequenced using the Illumina HiSeq 4000.

HRECs [5] = test: Propidium iodide cell cycle analysis in HRECs; format: cell-based, human; settings: high doses, 24 hours
Method: Cell cycle analysis. HRECs (2×10^6) were grown in EGM-2 medium. Cells were serum starved in EBM-2 medium overnight, then treated with the indicated concentrations of APX2009 or APX2014 along with DMSO control for 24 hours in complete medium. Cells were washed twice in ice-cold PBS followed by fixation in 66% ethanol solution overnight at 4° C. Fixed cells were again washed twice in ice-cold PBS and the pellets were resuspended in propidium iodide staining solution for 30 minutes at 37° C. (20 μg/mL propidium iodide prepared in 1×PBS containing 0.1% Triton X-100 and 100 μg/mL RNase A). After incubation cells were analyzed using flow cytometry (FACSCalibur, BD Biosciences, San Jose, Calif.). Pulse shape analysis was used to exclude doublets and debris. The single cell population was then assessed by the FL2 area histogram plot using ModFit software (v. 5.0) and cell cycle profiles were generated.

## CCC/C(=C\C1=C(OC)C(=O)c2ccccc2C1=O)C(=O)N(CC)CC [APX2009, (2E)-2-[(3-methoxy-1,4-dioxo-1,4-dihydronaphthalen-2-yl)methylidene]-N,N-diethylpentanamide]
[1]
  GI50: 26 µM
Rf/6a cells
  ability to form tubes, Rf/6a: significantly reduced
[2]
  APE1 repair activity in neurons: can enhance APE1 repair activity
[3]; at 10 μM
  reduction of choroidal sprouting compared to control: ~70%
[3]
  concentrations inhibiting choroidal sprouting ex vivo: low micromolar
HRECs [4]
  ability to form tubes, HRECs: significantly reduced
HIF-regulated genes
  expression of HIF regulated genes (RNA-Seq): blocked HIF regulated genes in a concentration dependent manner
HRECs [5]
  cell cycle phase distribution: modest increase in cells in G0/G1 phase

## CCC/C(=C\C1=C(OC)C(=O)c2ccccc2C1=O)C(=O)NOC [APX2014, (2E)-2-[(3-methoxy-1,4-dioxo-1,4-dihydronapthalen-2-yl)methylidene]-N-methoxypentanamide]
[1]
  GI50: 5 µM
Rf/6a cells
  ability to form tubes, Rf/6a: significantly reduced
[3]; at 1 μM (highest concentration tested)
  reduction of choroidal sprouting compared to control: ~60%
[3]
  concentrations inhibiting choroidal sprouting ex vivo: high nanomolar
HRECs [4]
  ability to form tubes, HRECs: significantly reduced
HRECs [5]
  cell cycle phase distribution: modest increase in cells in G0/G1 phase
